{"source": "BindingDB's records for doi:10.1016/j.bmcl.2005.02.084", "about": "(Bristol-Myers Squibb Pharmaceutical Research Institute, 2005)", "experiment": "Inhibitory concentration in CCR4-transfected murine pre-B L1.2 cells (chemotaxis assay)", "data": [{"smiles": "CCN(CC)CCCC(C)Nc1nccc(NCc2ccc(Cl)cc2Cl)n1", "note": "(stereo unspecified) [N*4*-(2,4-Dichloro-benzyl)-N*2*-(4-diethylamino-1-methyl-butyl)-pyrimidine-2,4-diamine]", "values": [{"measurement": "IC50", "value": 5, "unit": "µM"}]}]}
